Literature values as cited in patent publication US20050203062A1, “Use of tagatose in laxatives” (Spherix Incorporated, priority 2002, published 2005).

Experiments:
Type 2 diabetes = details: clinical trials
[1] = amounts approaching 30 or 40 grams per day

In the case of O=C(CO)[C@@H](O)[C@@H](O)[C@H](O)CO [tagatose, D-tagatose], the “rise in blood glucose” value (blood glucose; after tagatose itself) is given as “does not produce a rise in blood glucose”, the “rise in blood glucose from subsequent intake of glucose-producing foods” value (blood glucose; subsequent intake of glucose-producing foods) is given as “blunts the rise in blood glucose” and the “treatment of Type 2 diabetes” value (Type 2 diabetes) is given as “effective treatment for Type 2 diabetes”. The laxation effect [1] was “known to have a Taxation effect”.
